Results from ChEMBL document CHEMBL1144312, “Synthesis of mono-glucose-branched cyclodextrins with a high inclusion ability for doxorubicin and their efficient glycosylation using Mucor hiemalis endo-beta-N-acetylglucosaminidase” (Bioorg Med Chem Lett, 2005).

Key:
[1] = test system: doxorubicin (immobilized ligand, no protein target); experiment: Association constant for cyclodextrin binding to immobilized doxorubicin by SPR biosensor
[2] = test system: doxorubicin (immobilized ligand, no protein target); experiment: Association rate constant for cyclodextrin binding to immobilized doxorubicin by SPR biosensor
[3] = test system: doxorubicin (immobilized ligand, no protein target); experiment: Dissociation rate constant for cyclodextrin binding to immobilized doxorubicin by SPR biosensor

Ka [1]: 220 10E3·1/M
K ass [2]: 4.6 10E3·1/M·1/s
K diss [3]: 2.1 10E-2·1/s
SMILES: OCC1OC2OC3C(CO)OC(OC4C(CO)OC(OC5C(COCCCOc6ccc(O[C@@H]7O[C@@H](CO)[C@@H](O)[C@H](O)[C@@H]7O)cc6)OC(OC6C(CO)OC(OC7C(CO)OC(OC8C(CO)OC(OC1C(O)C2O)C(O)C8O)C(O)C7O)C(O)C6O)C(O)C5O)C(O)C4O)C(O)C3O (stereo partly drawn)
